Assay results taken from patent US5866681A, “Thrombin receptor antagonists” (priority 1995, dated 1999).
pIC50: −log10 of the molar value. Where a SMILES comes first, the peptide text is derived from it. Where no end group is shown, it is not given here. [ ]: non-standard residue; d: D form. The star is where a group is joined. Butanoyl(2-OPh) = CCC(Oc1ccccc1)C(=O)*; NMeR = CN[C@@H](CCCNC(=N)N)C(=O)O; hArg = N=C(N)NCCCC[C@H](N)C(=O)O; Cha = N[C@@H](CC1CCCCC1)C(=O)O; Orn = NCCC[C@H](N)C(=O)O

What was measured:
thrombin receptor = molecular target: T1, thrombin receptor (Homo sapiens, UniProt P25116); assay: Platelet aggregation assay for thrombin receptor antagonist activity (washed human platelets stimulated with α-thrombin); format: cell-based; conditions: washed human platelets, thrombin-mediated aggregation; read-out: IC50 (concentration at which 50% inhibition of platelet aggregation is achieved)
T1 construct: washed human platelets are prepared from blood drawn from healthy volunteers; endogenous in cells; host or cells: washed human platelets from healthy volunteers
T1 sequence (P25116 22-425): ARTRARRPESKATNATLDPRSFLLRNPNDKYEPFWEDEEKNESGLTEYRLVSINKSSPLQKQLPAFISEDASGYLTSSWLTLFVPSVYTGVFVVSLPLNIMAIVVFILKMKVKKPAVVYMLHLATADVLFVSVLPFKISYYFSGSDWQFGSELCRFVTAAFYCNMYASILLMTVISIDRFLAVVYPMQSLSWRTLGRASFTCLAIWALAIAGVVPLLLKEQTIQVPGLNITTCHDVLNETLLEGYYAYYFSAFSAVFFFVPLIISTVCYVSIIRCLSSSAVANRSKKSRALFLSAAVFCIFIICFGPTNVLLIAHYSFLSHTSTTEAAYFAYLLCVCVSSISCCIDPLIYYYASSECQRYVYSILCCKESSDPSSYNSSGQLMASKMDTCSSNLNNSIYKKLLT
Procedure: The compounds of the present invention may be tested for thrombin receptor antagonist activity by using a platelet aggregation assay. In this assay, washed human platelets are prepared from blood drawn from healthy volunteers who have not ingested any medications for two weeks prior to donation. Blood is drawn into 12.5% (vol/vol) ACD (85 mM sodium citrate, 111 mM dextrose, 71 mM citric acid) containing 0.1% (vol/vol) PGI2 (0.05 mg/mL PGI2, 100 mM Tris, pH 12). Platelet-rich plasma was obtained by centrifugation at 160×g for 20 minutes. The platelets were pelleted by centrifugation at 760×g for 10 minutes and resuspended in CGS (13 mM trisodium citrate, 120 mM sodium chloride, 30 mM dextrose, pH 7.0) containing 0.1% (vol/vol) PGI2, repelleted and resuspended in Tyrodes buffer (10 mM Hepes, 12 mM sodium bicarbonate, 138 mM sodium chloride, 5.5 mM glucose, 2.9 mM potassium chloride, 1.0 mM calcium chloride, pH 7.4) and stored at 37° C. Approximately 0.4-10 nM α-thrombin is used to stimulate platelet aggregation in control reactions which are monitored by aggregometry using an aggregometer. Candidate antagonists are added to the platelet mixture followed by the addition of thrombin in order to assess their ability to prevent thrombin-mediated aggregation.
Platelet aggregation can also be measured with washed platelets in 96-well microtiter plates as described in Fratantoni, J. C. et al., Am. J. Clin. Pathol. 94:613-617 (1990). The ability of the antagonists to block the thrombin receptor was assessed in this assay using various concentrations of antagonists. The concentration at which 50% inhibition of platelet aggregation is achieved is defined as IC50.

[1] = molecular target: T2, platelet thrombin receptors (Homo sapiens, UniProt P25116); conditions: platelet thrombin receptors activated with either thrombin or agonist peptides; cited from earlier work
T2 construct: host or cells: platelets
T2 sequence (P25116 22-425): T1 sequence (P25116 22-425)

Compound | pIC50 (thrombin receptor) | thrombin receptor antagonist activity [1]
CCC(Oc1ccccc1)C(=O)N[C@@H](CC1CCCCC1)C(=O)N[C@@H](CC1CCCCC1)C(=O)N[C@@H](CCCCNC(=N)N)C(=O)N[C@@H](CCCCN)C(N)=O (stereo partly drawn) [Compound 47] ({Butanoyl(2-OPh)}-[Cha][Cha][hArg]K-NH2) | 5.60 | –
CCC(Oc1ccccc1)C(=O)N[C@@H](CC1CCCCC1)C(=O)N[C@@H](CC1CCCCC1)C(=O)N[C@@H](CCCCN)C(=O)N[C@@H](CCCCN)C(N)=O (stereo partly drawn) [Compound 49] ({Butanoyl(2-OPh)}-[Cha][Cha]KK-NH2) | 4.12 | –
CCC(Oc1ccccc1)C(=O)N[C@@H](CC1CCCCC1)C(=O)N[C@@H](CC1CCCCC1)C(=O)N[C@@H](CCCNC(=N)N)C(=O)N[C@@H](CCCNC(=N)N)C(N)=O (stereo partly drawn) [Compound 51] ({Butanoyl(2-OPh)}-[Cha][Cha]RR-NH2) | 5.60 | –
CCC(Oc1ccccc1)C(=O)N[C@@H](CC1CCCCC1)C(=O)N[C@@H](CC1CCCCC1)C(=O)N[C@@H](CCCNC(=N)N)C(=O)N[C@H](CCCCN)C(N)=O (stereo partly drawn) [Compound 52] ({Butanoyl(2-OPh)}-[Cha][Cha]R[dK]-NH2) | 4.82 | –
CCC(Oc1ccccc1)C(=O)N[C@@H](CC1CCCCC1)C(=O)N[C@@H](CC1CCCCC1)C(=O)N(C)[C@@H](CCCNC(=N)N)C(=O)N[C@@H](CCCCN)C(N)=O (stereo partly drawn) [Compound 53] ({Butanoyl(2-OPh)}-[Cha][Cha][NMeR]K-NH2) | 5.70 | –
CCC(Oc1ccccc1)C(=O)N[C@@H](CC1CCCCC1)C(=O)N[C@@H](CC1CCCCC1)C(=O)NCc1ccncc1 (stereo partly drawn) [Compound 58] | < 4.00 | –
Phe-Leu-Leu-Arg-Asn-OH (FLLRN-OH) [pentapeptide based on a portion of the agonist peptide minimum structure] | – | weak antagonist

The remaining compounds from weak to strong by pIC50 (thrombin receptor), led by results:

pIC50 (thrombin receptor) | Compound | thrombin receptor antagonist activity [1]
4.00 | CCC(Oc1ccccc1)C(=O)N[C@@H](CC1CCCCC1)C(=O)N[C@@H](CC1CCCCC1)C(=O)N[C@@H](CCCN)C(=O)N[C@@H](CCCCN)C(N)=O (stereo partly drawn) [Compound 50] ({Butanoyl(2-OPh)}-[Cha][Cha][Orn]K-NH2) | –
4.05 | CCC(Oc1ccccc1)C(=O)N[C@@H](CC1CCCCC1)C(=O)N[C@@H](CC1CCCCC1)C(=O)NCCCN1CCN(CCCN)CC1 (stereo partly drawn) [Compound 59] | –
4.60 | CCC(Oc1ccccc1)C(=O)N[C@@H](CC1CCCCC1)C(=O)N[C@@H](CC1CCCCC1)C(=O)NCCCN(C)C (stereo partly drawn) [Compound 60] | –
4.82 | CCC(Oc1ccccc1)C(=O)N[C@@H](Cc1ccccc1)C(=O)N[C@@H](CC1CCCCC1)C(=O)N[C@@H](CCCNC(=N)N)C(=O)N[C@@H](CCCCN)C(N)=O (stereo partly drawn) [Compound 46] ({Butanoyl(2-OPh)}-F[Cha]RK-NH2) | –
5.00 | CCC(Oc1ccccc1)C(=O)N[C@@H](CC1CCCCC1)C(=O)N[C@@H](CC1CCCCC1)C(=O)N[C@@H](CCCNC(=N)N)C(=O)N[C@@H](CCCN)C(N)=O (stereo partly drawn) [Compound 48] ({Butanoyl(2-OPh)}-[Cha][Cha]R[Orn]-NH2) | –
5.70 | CCC(Oc1ccccc1)C(=O)N[C@@H](Cc1ccccc1)C(=O)N[C@@H](CC1CCCCC1)C(=O)N[C@@H](CCCCNC(=N)N)C(=O)N[C@@H](CCCNC(=N)N)C(N)=O (stereo partly drawn) [Compound 57] ({Butanoyl(2-OPh)}-F[Cha][hArg]R-NH2) | –
6.00 | CCC(Oc1ccccc1)C(=O)N[C@@H](CC1CCCCC1)C(=O)N[C@@H](CC1CCCCC1)C(=O)N[C@@H](CCCCNC(=N)N)C(=O)N[C@@H](CCCNC(=N)N)C(N)=O (stereo partly drawn) [Compound 55] ({Butanoyl(2-OPh)}-[Cha][Cha][hArg]R-NH2) | –
6.30 | CCC(Oc1ccccc1)C(=O)N[C@@H](CC1CCCCC1)C(=O)N[C@@H](CC1CCCCC1)C(=O)N(C)[C@@H](CCCNC(=N)N)C(=O)N[C@@H](CCCNC(=N)N)C(N)=O (stereo partly drawn) [Compound 54] ({Butanoyl(2-OPh)}-[Cha][Cha][NMeR]R-NH2) | –
